Here are results for 36 compounds from US10544143B2, “4-azaindole compounds” (BRISTOL-MYERS SQUIBB COMPANY, priority 2017, dated 2020).

Test [1] deals with human TLR7 (Homo sapiens (Human), UniProt Q9NYK1). The test is described as follows: TLR7 inhibition reporter assay (HEK-Blue SEAP). Type of test: cell-based.
The target in test [2] is human TLR8 (Homo sapiens (Human), UniProt Q9NR97). The test is described as follows: TLR8 inhibition reporter assay (HEK-Blue SEAP).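 Also: SEAP driven by IFN-β minimal promoter carrying NF-κB and AP-1 sites, compounds dosed 0.05 nM to 50 µM for 22 h, inhibition scaled between agonist-plus-DMSO and reference-inhibitor wells.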
Sequence of human TLR8 (Q9NR97 27-1041): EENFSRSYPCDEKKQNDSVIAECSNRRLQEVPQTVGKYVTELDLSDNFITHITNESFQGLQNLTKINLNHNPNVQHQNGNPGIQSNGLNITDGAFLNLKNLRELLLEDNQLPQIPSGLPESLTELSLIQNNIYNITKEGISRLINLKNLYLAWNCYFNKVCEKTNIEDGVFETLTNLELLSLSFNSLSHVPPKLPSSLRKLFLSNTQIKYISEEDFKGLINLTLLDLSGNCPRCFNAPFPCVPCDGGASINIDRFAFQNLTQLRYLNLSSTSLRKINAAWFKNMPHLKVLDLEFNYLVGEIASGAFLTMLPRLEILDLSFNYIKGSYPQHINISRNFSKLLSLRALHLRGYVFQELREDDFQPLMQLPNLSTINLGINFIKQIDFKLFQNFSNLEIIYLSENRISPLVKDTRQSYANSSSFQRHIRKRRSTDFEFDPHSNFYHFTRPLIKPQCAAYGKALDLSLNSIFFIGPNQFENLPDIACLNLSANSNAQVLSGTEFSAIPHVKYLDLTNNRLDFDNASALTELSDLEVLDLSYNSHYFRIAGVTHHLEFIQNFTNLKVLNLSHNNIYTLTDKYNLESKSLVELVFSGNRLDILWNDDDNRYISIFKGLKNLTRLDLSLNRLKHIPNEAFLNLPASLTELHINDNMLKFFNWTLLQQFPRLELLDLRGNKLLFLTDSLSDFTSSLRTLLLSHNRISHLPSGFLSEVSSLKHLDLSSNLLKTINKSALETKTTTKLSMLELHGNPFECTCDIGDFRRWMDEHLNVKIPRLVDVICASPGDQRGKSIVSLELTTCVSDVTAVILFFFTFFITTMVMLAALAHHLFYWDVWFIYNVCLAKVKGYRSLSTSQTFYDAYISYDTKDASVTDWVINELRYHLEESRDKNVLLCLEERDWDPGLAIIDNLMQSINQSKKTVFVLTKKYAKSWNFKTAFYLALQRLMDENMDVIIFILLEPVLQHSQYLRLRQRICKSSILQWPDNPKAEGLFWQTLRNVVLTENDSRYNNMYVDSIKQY
The target in test [3] is human TLR9 (Homo sapiens (Human), UniProt Q9NR96). The test is described as follows: TLR9 inhibition reporter assay (HEK-Blue SEAP).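 Also: SEAP driven by an IFN-β minimal promoter with NF-κB and AP-1 sites, read after 22 h, compounds dosed 0.05 nM–50 µM, inhibition scaled between agonist plus DMSO and reference-inhibitor wells.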
Sequence of human TLR9 (Q9NR96 26-1032): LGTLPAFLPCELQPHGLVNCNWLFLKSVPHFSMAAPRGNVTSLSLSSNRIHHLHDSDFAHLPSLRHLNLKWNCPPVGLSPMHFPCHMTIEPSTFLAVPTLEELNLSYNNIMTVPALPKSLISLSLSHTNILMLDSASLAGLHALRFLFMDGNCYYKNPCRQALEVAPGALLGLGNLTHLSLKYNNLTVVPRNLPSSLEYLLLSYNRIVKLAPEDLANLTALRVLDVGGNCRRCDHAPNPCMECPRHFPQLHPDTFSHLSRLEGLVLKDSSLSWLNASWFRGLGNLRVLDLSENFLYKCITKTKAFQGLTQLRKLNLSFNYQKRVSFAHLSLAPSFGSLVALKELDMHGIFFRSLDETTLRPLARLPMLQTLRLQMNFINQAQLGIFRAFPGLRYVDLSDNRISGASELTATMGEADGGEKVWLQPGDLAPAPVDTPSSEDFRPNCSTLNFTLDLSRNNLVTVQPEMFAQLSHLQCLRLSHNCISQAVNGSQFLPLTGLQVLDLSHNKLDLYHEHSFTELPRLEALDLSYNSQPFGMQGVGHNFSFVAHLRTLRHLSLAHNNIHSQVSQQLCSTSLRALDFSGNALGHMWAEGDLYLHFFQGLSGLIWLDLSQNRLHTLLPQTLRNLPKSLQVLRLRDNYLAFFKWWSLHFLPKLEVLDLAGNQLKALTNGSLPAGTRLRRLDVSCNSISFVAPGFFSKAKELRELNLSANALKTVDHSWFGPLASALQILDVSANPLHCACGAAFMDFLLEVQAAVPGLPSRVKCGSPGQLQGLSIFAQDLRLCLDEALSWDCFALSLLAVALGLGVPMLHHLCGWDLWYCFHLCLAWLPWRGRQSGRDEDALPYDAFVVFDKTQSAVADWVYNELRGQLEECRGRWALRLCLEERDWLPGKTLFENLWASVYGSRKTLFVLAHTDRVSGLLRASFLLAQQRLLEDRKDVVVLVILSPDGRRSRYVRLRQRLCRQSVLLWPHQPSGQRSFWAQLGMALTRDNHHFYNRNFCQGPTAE
[4] abbreviates: HEK-Blue human TLR7 cells, gardiquimod 7.5 μM.
[5] abbreviates: read-out: TLR8 IC50, HEK-Blue human TLR8 cells, R848 15.9 μM.
Setting [6] is: read-out: TLR9 IC50, HEK-Blue human TLR9 cells, ODN2006 5 nM.
Where [7] appears, read: HEK-Blue cells overexpressing human TLR7, SEAP reporter, gardiquimod 7.5 μM.
Where [8] appears, read: read-out: TLR8 IC50, HEK-Blue cells overexpressing human TLR8, SEAP reporter, R848 15.9 μM.
Where [9] appears, read: read-out: TLR9 IC50, HEK-Blue cells overexpressing human TLR9, SEAP reporter, ODN2006 5 nM.
Setting [10] is: HEK-Blue cells overexpressing human TLR7, gardiquimod 7.5 μM stimulation, SEAP reporter.
Setting [11] is: read-out: TLR8 IC50, HEK-Blue cells overexpressing human TLR8, R848 15.9 μM stimulation, SEAP reporter.
The mark [12] stands for this setting: read-out: TLR9 IC50, HEK-Blue cells overexpressing human TLR9, ODN2006 5 nM stimulation, SEAP reporter.
The mark [13] stands for this setting: TLR8 IC50, HEK-Blue human TLR8 cells, R848 15.9 μM.
Setting [14] is: TLR9 IC50, HEK-Blue human TLR9 cells, ODN2006 5 nM.

Like-named read-outs stand apart in the source and are kept apart here.

Sequence of human TLR7 (Q9NYK1 27-1049): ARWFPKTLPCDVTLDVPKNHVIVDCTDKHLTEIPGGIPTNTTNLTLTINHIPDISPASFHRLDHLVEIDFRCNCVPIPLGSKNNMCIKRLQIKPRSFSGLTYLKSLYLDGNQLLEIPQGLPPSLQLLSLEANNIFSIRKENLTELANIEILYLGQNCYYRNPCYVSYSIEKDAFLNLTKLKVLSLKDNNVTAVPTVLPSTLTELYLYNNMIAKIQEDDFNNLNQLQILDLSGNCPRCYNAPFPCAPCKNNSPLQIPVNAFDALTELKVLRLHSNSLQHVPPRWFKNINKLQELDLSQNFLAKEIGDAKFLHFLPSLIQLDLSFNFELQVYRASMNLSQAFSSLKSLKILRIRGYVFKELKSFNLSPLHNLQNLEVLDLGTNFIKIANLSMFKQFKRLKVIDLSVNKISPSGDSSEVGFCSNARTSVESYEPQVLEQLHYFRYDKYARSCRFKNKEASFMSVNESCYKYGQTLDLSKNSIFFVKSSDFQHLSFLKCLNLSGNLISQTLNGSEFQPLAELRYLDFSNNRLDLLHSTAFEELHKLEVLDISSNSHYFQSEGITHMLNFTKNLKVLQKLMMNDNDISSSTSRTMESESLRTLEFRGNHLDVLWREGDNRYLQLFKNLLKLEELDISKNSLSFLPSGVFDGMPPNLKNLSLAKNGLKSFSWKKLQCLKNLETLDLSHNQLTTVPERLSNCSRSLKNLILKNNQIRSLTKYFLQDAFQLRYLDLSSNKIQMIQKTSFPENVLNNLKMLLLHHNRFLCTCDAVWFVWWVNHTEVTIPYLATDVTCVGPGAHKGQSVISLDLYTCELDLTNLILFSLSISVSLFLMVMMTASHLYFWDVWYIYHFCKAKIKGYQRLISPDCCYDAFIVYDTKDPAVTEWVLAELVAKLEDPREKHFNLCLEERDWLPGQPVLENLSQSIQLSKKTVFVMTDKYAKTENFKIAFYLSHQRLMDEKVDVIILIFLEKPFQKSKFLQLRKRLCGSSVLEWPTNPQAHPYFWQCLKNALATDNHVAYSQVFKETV

Take `Cc1c(-c2[nH]c3ccc(N4CCN(CC(=O)N(C)C)C[C@@H]4C)nc3c2C(C)C)cn2ncnc2c1C` [Example 803]: the IC50 was 4.3 nM in test [1] (setting [4]), 4 nM in test [2] (setting [5]) and 39700 nM in test [3] (setting [6]).

Consider `Cc1c(-c2[nH]c3ccc(C4CC5(CNC5)C4)nc3c2C(C)C)cn2ncnc2c1C` [Example 745, 6-(3-isopropyl-5-(2-azaspiro[3.3]heptan-6-yl)-1H-pyrrolo[3,2-b]pyridin-2-yl)-7,8-dimethyl-[1,2,4]triazolo[1,5-a]pyridine], for which the IC50 in test [1] (setting [7]) stood at 2.2 nM; in test [2] (setting [8]), 5.8 nM; in test [3] (setting [9]), 2450 nM.

As for `Cc1c(-c2[nH]c3ccc(N4CCN(C(=O)CN(C)C(C)C)[C@H](C)C4)nc3c2C(C)C)cn2ncnc2c1C` [Example 943], the IC50 in test [1] (setting [4]) was determined as 1.1 nM; in test [2] (setting [5]), 1.1 nM; in test [3] (setting [6]), 10000 nM.

For the compound `COc1cc(-c2[nH]c3ccc(C4CC(N(C)C)C4)nc3c2C(C)C)cn2ncnc12` (centres unmarked) [Example 639], the IC50 in test [1] (setting [7]) came out at 0.98 nM; in test [2] (setting [8]) it was 1.9 nM; in test [3] (setting [9]), 1470 nM.

As to `Cc1c(-c2[nH]c3ccc(N4CC(NC(=O)CN(C)C)C4)nc3c2C(C)C)cn2ncnc2c1C` [Example 15], the IC50 in test [1] (setting [10]) was found to be 7.3 nM; in test [2] (setting [11]) it was 4.3 nM; in test [3] (setting [12]), 1940 nM.

As for `Cc1c(-c2[nH]c3ccc(C4CCC(NCCO)CC4)nc3c2C(C)C)cn2ncnc2c1C` (centres unmarked) [Example 379], the IC50 in test [1] (setting [10]) is 2.6 nM; in test [2] (setting [11]), 4.7 nM; in test [3] (setting [12]) it was 909 nM.

Take `Cc1c(-c2[nH]c3ccc(N4CC5(CN(C(=O)CN(C)C)C5)C4)nc3c2C(C)C)cn2ncnc2c1C` [Example 743, 1-(6-(2-(7,8-dimethyl-[1,2,4]triazolo[1,5-a]pyridin-6-yl)-3-isopropyl-1H-pyrrolo[3,2-b]pyridin-5-yl)-2,6-diazaspiro[3.3]heptan-2-yl)-2-(dimethylamino)ethan-1-one]: the IC50 was 3.6 nM in test [1] (setting [7]), 8.4 nM in test [2] (setting [8]) and 1880 nM in test [3] (setting [9]).

Regarding `Cc1c(-c2[nH]c3ccc(C4CCN(CC(=O)N(C)C)CC4)nc3c2C(C)C)cn(C)c(=O)c1Cl` [Example 567], the IC50 was 18 nM in test [1] (setting [7]), 18 nM in test [2] (setting [8]) and 2320 nM in test [3] (setting [9]).

`COc1cc(-c2[nH]c3cc(C)c(C4CCC(N5CC6(COC6)C5)CC4)nc3c2C(C)C)cn2ncnc12` (centres unmarked) [Example 319]: the results for the IC50 in test [1] (setting [10]), in test [2] (setting [11]) and in test [3] (setting [12]) were 0.44 nM, 4.1 nM and 1690 nM, respectively.

As to `CC(C)c1c(-c2cn(C)c3ncccc23)[nH]c2ccc(C3CCC(N(C)CC(=O)N(C)C)CC3)nc12` (centres unmarked) [Example 201], the IC50 in test [1] (setting [10]) was found to be 1.5 nM; in test [2] (setting [11]), 6 nM; in test [3] (setting [12]), 570 nM.

For `COc1cc(-c2[nH]c3ccc(C4CCC(NCC(=O)N(C)C)CC4)nc3c2C(C)C)cn2ncnc12` (centres unmarked) [Example 181], the values for the IC50 in test [1] (setting [10]), in test [2] (setting [11]) and in test [3] (setting [12]) were 1.7 nM, 13 nM and 561 nM, respectively.

In the case of `COc1cc(-c2[nH]c3ccc(OCC4CCN(CC(C)(C)O)CC4)nc3c2C(C)C)cn2ncnc12` [Example 597, 1-(4-(((3-isopropyl-2-(8-methoxy-[1,2,4]triazolo[1,5-a]pyridin-6-yl)-1H-pyrrolo[3,2-b]pyridin-5-yl)oxy)methyl)piperidin-1-yl)-2-methylpropan-2-ol], the values for the IC50 in test [1] (setting [7]), in test [2] (setting [8]) and in test [3] (setting [9]) were 1.3 nM, 1.2 nM and 918 nM, respectively.

In the case of `COc1ccc(-c2[nH]c3ccc(C4CCNCC4)nc3c2C(C)C)cc1OC` [Example 526], the IC50 in test [1] (setting [7]) stood at 8.8 nM; in test [2] (setting [8]), 14 nM; in test [3] (setting [9]), 666 nM.

`COc1cc(-c2[nH]c3ccc(C4CCC(NC(=O)C5CCN(C)CC5)C4)nc3c2C(C)C)cn2ncnc12` (centres unmarked) [Example 714]: the values for the IC50 in test [1] (setting [7]), in test [2] (setting [8]) and in test [3] (setting [9]) were 1.8 nM, 9.3 nM and 203 nM, respectively.

`Cc1c(-c2[nH]c3ccc(C4CCC(NCCS(=O)(=O)C(F)(F)F)CC4)nc3c2C(C)C)cn2ncnc2c1C` (centres unmarked) [Example 423]: the IC50 in test [1] (setting [7]) was 175 nM; in test [2] (setting [8]), 83 nM; in test [3] (setting [9]) it was > 50000 nM.

`Cc1c(-c2[nH]c3ccc(C4CCN(C5COC5)CC4)nc3c2C(C)C)cn(C)c(=O)c1Cl` [Example 566]: the results for the IC50 in test [1] (setting [7]), in test [2] (setting [8]) and in test [3] (setting [9]) were 24 nM, 18 nM and 19000 nM, respectively.

Turning to `CNC1CCC(c2ccc3[nH]c(-c4cn(CC#N)c5ncccc45)c(C(C)C)c3n2)CC1` (centres unmarked) [Example 263], the IC50 in test [1] (setting [10]) was 6.2 nM; in test [2] (setting [11]), 7.6 nM; in test [3] (setting [12]), 338 nM.

Consider `Cc1c(-c2[nH]c3ccc(N4CCN(C(=O)CN(C)C(C)(C)C)[C@@H](C)C4)nc3c2C(C)C)cn2ncnc2c1C` [Example 904], for which the IC50 in test [1] (setting [4]) stood at 1 nM; in test [2] (setting [5]), 4.2 nM; in test [3] (setting [6]), 14800 nM.

For `Cc1c(-c2[nH]c3ccc(C4CCNCC4)nc3c2C(C)C)cn2ncnc2c1C` [Example 521], the IC50 in test [1] (setting [7]) came out at 0.62 nM; in test [2] (setting [8]), 1.3 nM; in test [3] (setting [9]), 238 nM.

On to `Cc1c(-c2[nH]c3ccc(N4CCN(C(=O)CCN(C)C)[C@H](C)C4)nc3c2C(C)C)cn2ncnc2c1C` [Example 850], for which the figures for the IC50 in test [1] (setting [4]), in test [2] (setting [5]) and in test [3] (setting [6]) were 0.72 nM, 1.6 nM and 6540 nM, respectively.

As for `[2H]C([2H])(C(=O)N1C([2H])([2H])C([2H])([2H])N(c2ccc3[nH]c(-c4cn5ncnc5c(C)c4C)c(C(C)C)c3n2)C([2H])([2H])C1([2H])[2H])N(C)C` (single isomer, unassigned) [Example 890], the concentration for half-maximal inhibition (IC50) in test [1] (setting [4]) was 1.8 nM; in test [2] (setting [13]), 1.4 nM; in test [3] (setting [14]), 14700 nM.

For the compound `Cc1c(-c2[nH]c3ccc(N4C[C@@H](C)N(C(=O)CCN(C)C)[C@@H](C)C4)nc3c2C(C)C)cn2ncnc2c1C` [Example 860], the IC50 in test [1] (setting [4]) stood at 0.3 nM; in test [2] (setting [5]), 0.62 nM; in test [3] (setting [6]) it was 5060 nM.

Take `CNC(=O)CNC1CCC(c2ccc3[nH]c(-c4cc(OC)c5ncnn5c4)c(C(C)C)c3n2)C1` (centres unmarked) [Example 725]: the results for the IC50 in test [1] (setting [7]), in test [2] (setting [8]) and in test [3] (setting [9]) were 0.62 nM, 1.9 nM and 2060 nM, respectively.

For `Cc1c(-c2[nH]c3ccc(CCC4CN(CC(=O)N(C)C)C4)nc3c2C(C)C)cn2ncnc2c1C` [Example 696], the IC50 is 75 nM in test [1] (setting [7]), 36 nM in test [2] (setting [8]) and 1310 nM in test [3] (setting [9]).

Take `COc1cc(-c2[nH]c3ccc(N4CCN(C(=O)CN(C)C)CC4)nc3c2C(C)C)cn2ncnc12` [Example 90]: the half-maximal inhibitory concentration (IC50) is 0.57 nM in test [1] (setting [10]), 4.2 nM in test [2] (setting [11]) and 5000 nM in test [3] (setting [12]).

On to `COc1cc(-c2[nH]c3ccc(C4CCN(CC(C)(C)O)CC4)nc3c2C(C)C)cn2ncnc12` [Example 548], for which the results for the IC50 in test [1] (setting [7]), in test [2] (setting [8]) and in test [3] (setting [9]) were 0.71 nM, 0.98 nM and 1090 nM, respectively.

Turning to `Cc1c(-c2[nH]c3ccc(N4CCC(N(C)CC5CC5)CC4)nc3c2C(C)C)cn2ncnc2c1C` [Example 58], the IC50 is 1.3 nM in test [1] (setting [10]), 0.72 nM in test [2] (setting [11]) and 1970 nM in test [3] (setting [12]).

In the case of `[2H]C([2H])([2H])N(CC(=O)N1CCN(c2ccc3[nH]c(-c4cn5ncnc5c(C)c4C)c(C(C)C)c3n2)[C@H](C)C1)C([2H])([2H])[2H]` [Example 838], the IC50 in test [1] (setting [4]) came to 0.6 nM; in test [2] (setting [13]), 3.5 nM; in test [3] (setting [14]) it was 9890 nM.

Take `CCN(C)CC(=O)N1C[C@H]2CC[C@@H](C1)N2c1ccc2[nH]c(-c3cn4ncnc4c(C)c3C)c(C(C)C)c2n1` [Example 922]: the IC50 in test [1] (setting [4]) is 0.55 nM; in test [2] (setting [5]), 2.1 nM; in test [3] (setting [6]) it was 9370 nM.

Turning to `Cc1c(-c2[nH]c3ccc(C4CCC(N(CCC#N)C5CC5)CC4)nc3c2C(C)C)cn2ncnc2c1C` (centres unmarked) [Example 428], the figures for the IC50 in test [1] (setting [7]), in test [2] (setting [8]) and in test [3] (setting [9]) were 7.4 nM, 6.4 nM and 9860 nM, respectively.

For `COc1cc(-c2[nH]c3ccc(N4CCN(C)CC4)nc3c2C(C)C)cn2ncnc12` [Example 91], the results for the IC50 in test [1] (setting [10]), in test [2] (setting [11]) and in test [3] (setting [12]) were 0.68 nM, 0.53 nM and 6310 nM, respectively.

As to `COc1cc(-c2[nH]c3ccc(C4CCC(N(C)Cc5cnc(C)cn5)CC4)nc3c2C(C)C)cn2ncnc12` (centres unmarked) [Example 202], the IC50 in test [1] (setting [10]) was 3.8 nM; in test [2] (setting [11]), 28 nM; in test [3] (setting [12]) it was 2030 nM.

On to `Cc1c(-c2[nH]c3ccc(C4CCC(NCC5CCCCS5(=O)=O)CC4)nc3c2C(C)C)cn2ncnc2c1C` (centres unmarked) [Example 464], for which the results for the IC50 in test [1] (setting [7]), in test [2] (setting [8]) and in test [3] (setting [9]) were 0.68 nM, 0.85 nM and 1770 nM, respectively.

For the compound `Cc1c(-c2[nH]c3ccc(C4CCC(NCC(C)(C)S(C)(=O)=O)CC4)nc3c2C(C)C)cn2ncnc2c1C` (centres unmarked) [Example 454], the IC50 in test [1] (setting [7]) stood at 1.2 nM; in test [2] (setting [8]) it was 0.68 nM; in test [3] (setting [9]) it was 2390 nM.

As to `COc1cc(-c2[nH]c3ccc(N4CCN(Cc5cn(C)nn5)CC4)nc3c2C(C)C)cn2ncnc12` [Example 129], the IC50 came to 6.7 nM in test [1] (setting [10]), 1.3 nM in test [2] (setting [11]) and 22800 nM in test [3] (setting [12]).

Take `Cc1c(-c2[nH]c3ccc(C4CCC(N(CCO)CC(=O)N(C)C)CC4)nc3c2C(C)C)cn2ncnc2c1C` (centres unmarked) [Example 468]: the IC50 was 46 nM in test [1] (setting [7]) and 99 nM in test [2] (setting [8]).
